In the assay the test system is amphetamine induced hyperactivity mice model. Briefly: Amphetamine induced hyperactivity mouse model. As to conditions: in-vitro and in-vivo evaluation, FIGS. 3 and 4.
Experimental: The animals were housed in plastic polypropylene cages under standard animal house conditions with a 12 hours light/dark cycle and temperature of 25±2° C.
The mice randomly grouped in batches of seven animals per group. The basal motor activity (distance traveled) of each mouse was recorded individually using automated activity monitor (TSE, Germany). After basal activity recording, a group of seven animals were challenged with amphetamine [5.5 mg/kg, intra peritoneal (i.p) dissolved in normal saline]. After 30 min. amphetamine injection, motor activity was recorded for individual animal for 5 min.
The difference in motor activity as indicated by distance traveled in animals with amphetamine alone treated and animals with samples plus amphetamine challenge was recorded as inhibition in hyper activity caused by amphetamine and data presented as percent inhibition in amphetamine induced hyperactivity.
For the compound `COC(=O)C1C(OC(=O)c2cccc([N+](=O)[O-])c2)CCC2CN3CCc4c([nH]c5ccccc45)C3CC21` (stereo not drawn) [K001C, 17-O-(3″)-nitrobenzoyl α-yohimbine], the “antipsychotic activity in-vitro and in-vivo” value was “potential antipsychotic activity”. To `COC(=O)C1C(OC(=O)C=Cc2ccccc2)CCC2CN3CCc4c([nH]c5ccccc45)C3CC21` (stereo not drawn) [K001F, 17-O-cinnamoyl α-yohimbine] belongs “potential antipsychotic activity”; to `COC(=O)C1C(OC(=O)c2ccc([N+](=O)[O-])cc2)CCC2CN3CCc4c([nH]c5ccccc45)C3CC21` (stereo not drawn) [K001E, 17-O-(4″)-nitrobenzoyl-α-yohimbine], “potential antipsychotic activity”. Turning to `COC(=O)C1C(OC(C)=O)CCC2CN3CCc4c([nH]c5ccccc45)C3CC21` (stereo not drawn) [K001A, 17-O-acetyl α-yohimbine], the “antipsychotic activity in-vitro and in-vivo” value is “potential antipsychotic activity”.

For the origin of these results see patent publication US20130184462A1, “METHOD FOR PREDICTING AND MODELING ANTI-PSYCHOTIC ACTIVITY USING VIRTUAL SCREENING MODEL” (COUNCIL OF SCIENTIFIC & INDUSTRIAL RESEARCH, priority 2010, published 2013).
